Here are results for 20 compounds from patent US8563714B2, “Bridged spiro [2.4] heptane derivatives as ALX receptor and/or FPRL2 agonists” (Actelion Pharmaceuticals Ltd., priority 2009, dated 2013).

One assay deals with T1, human FPRL2 (Homo sapiens, UniProt P25089).
T1 construct: expressed in transfected cells; host or cells: HEK293 (HEK293-hFPRL2-Gα16)
T1 sequence (P25089 1-353): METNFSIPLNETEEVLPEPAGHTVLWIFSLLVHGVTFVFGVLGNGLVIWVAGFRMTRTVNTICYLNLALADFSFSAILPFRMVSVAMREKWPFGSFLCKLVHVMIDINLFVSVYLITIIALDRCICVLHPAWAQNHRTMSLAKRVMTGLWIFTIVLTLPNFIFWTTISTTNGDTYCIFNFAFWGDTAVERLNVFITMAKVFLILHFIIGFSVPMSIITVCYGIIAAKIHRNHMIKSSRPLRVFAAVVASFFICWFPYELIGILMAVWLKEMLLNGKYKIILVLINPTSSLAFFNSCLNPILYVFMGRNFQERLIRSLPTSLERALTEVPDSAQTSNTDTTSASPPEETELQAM
The assay can be described thus: Intracellular calcium measurements (FLIPR), agonistic activity in HEK293-hFPRL2-Gα16 cells. The conditions noted are these: Fluo-4 calcium FLIPR, normalized to GLY14-Humanin 100 nM. In kind it is cell-based. The procedure, abridged: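 Peak values after baseline subtraction are expressed relative to 100 nM Gly14-Humanin; compounds diluted in assay buffer from 10 mM DMSO stocks.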
For orientation: Calcium flux is commonly read through the fluorescence of an indicator in the cells.

In the next assay the target is T2, human ALX receptor (Homo sapiens, UniProt P25090).
T2 construct: expressed in transfected cells; host or cells: HEK293 (HEK293-hALXR-Gα16)
T2 sequence (P25090 1-351): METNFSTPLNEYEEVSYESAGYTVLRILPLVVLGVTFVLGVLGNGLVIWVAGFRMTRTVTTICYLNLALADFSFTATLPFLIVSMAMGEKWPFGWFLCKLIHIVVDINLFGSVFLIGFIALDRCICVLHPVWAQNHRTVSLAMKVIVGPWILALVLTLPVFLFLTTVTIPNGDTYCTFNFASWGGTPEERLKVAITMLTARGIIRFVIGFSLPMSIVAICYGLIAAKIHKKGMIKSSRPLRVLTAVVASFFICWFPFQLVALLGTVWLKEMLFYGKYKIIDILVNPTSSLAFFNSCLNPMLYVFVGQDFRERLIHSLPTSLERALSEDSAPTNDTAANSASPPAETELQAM
The experiment in a line: Intracellular calcium measurements (FLIPR), agonistic activity in HEK293-hALXR-Gα16 cells. In kind it is cell-based. The conditions noted are these: Fluo-4 calcium FLIPR, normalized to WKYMVm 10 nM. In a few lines: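 Agonist-induced calcium flux was recorded by FLIPR (488/540 nm) in HEK293-hALXR-Gα16 cells pre-loaded with Fluo-4 AM (1 μM, 60 min, 37°C). Peak signal above baseline, after subtracting buffer addition, was expressed relative to WKYMVm at 10 nM final.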

Structures are written as SMILES. Where only a bound is given, the exact number is not on record here.

For the compound `NC(=O)CCNC(=O)[C@H]1[C@H](C(=O)NCc2ccc(Br)cc2F)[C@@H]2C=C[C@H]1C21CC1` [Example 282, (5R)—N^5-(4-Bromo-2-fluorophenyl-methyl)-(6R)—N^6-(3-amino-3-oxopropyl)-(4S,7R)-[4,7-ethenylene-spiro[2.4]heptane]-5,6-dicarboxamide], the figures for the EC50 on human FPRL2 and at human ALX receptor were over 25000 nM and 146 nM, respectively.

In the case of `O=C(NCCCCN1CCCC1)[C@H]1[C@H](C(=O)Nc2cnc(Br)c(F)c2)[C@@H]2CC[C@H]1C21CC1` [Example 402, (5R)—N^5-(2-Bromo-3-fluoro-pyridin-5-yl)-(6R)—N^6-(4-pyrrolidino-butyl)-(4S,7R)-[4,7-ethylene-spiro[2.4]heptane]-5,6-dicarboxamide], the EC50 worked out at 66 nM on human FPRL2 and 349 nM at human ALX receptor.

Turning to `O=C(NCCCCN1CCCC1)[C@H]1[C@H](C(=O)Nc2nc(Br)cs2)[C@@H]2C=C[C@H]1C21CC1` [Example 394, (5R)—N^5-(4-Bromo-thiazol-2-yl)-(6R)—N^6-(4-pyrrolidino-butyl)-(4S,7R)-[4,7-ethenylene-spiro[2.4]heptane]-5,6-dicarboxamide], the EC50 on human FPRL2 came out at 166 nM; on human ALX receptor it was 1550 nM.

Regarding `NCCCCNC(=O)[C@H]1[C@H](C(=O)Nc2ccc(Br)cc2)[C@@H]2C=C[C@H]1C21CC1` (relative stereo) [Example 5, (5R*)—N^5-(4-Bromophenyl)-(6R*)—N^6-(4-amino-butyl)-(4S*,7R*)-[4,7-ethenylene-spiro[2.4]heptane]-5,6-dicarboxamide], the EC50 at human FPRL2 came out at 1160 nM; on human ALX receptor, 0.34 nM.

As for `NC(=O)CCNC(=O)[C@H]1[C@H](C(=O)Nc2ncc(Br)s2)[C@@H]2C=C[C@H]1C21CC1` [Example 240, (5R)—N^5-(5-Bromo-thiazol-2-yl)-(6R)—N^6-(3-amino-3-oxopropyl)-(4S,7R)-[4,7-ethenylene-spiro[2.4]heptane]-5,6-dicarboxamide], the figures for the EC50 on human FPRL2 and at human ALX receptor were over 25000 nM and 8.1 nM, respectively.

On to `NCCCNC(=O)[C@H]1[C@H](C(=O)NCc2ccc(Br)cc2)[C@@H]2C=C[C@H]1C21CC1` (racemic) [Example 307, (5R*)—N^5-(4-Bromophenyl-methyl)-(6R*)—N^6-(3-amino-propyl)-(4S*,7R*)-[4,7-ethenylene-spiro[2.4]heptane]-5,6-dicarboxamide], for which the EC50 at human FPRL2 was found to be 2640 nM; at human ALX receptor, 76 nM.

As to `O=C(NCCCCN1CCCC1)[C@H]1[C@H](C(=O)NCC2CCCCC2)[C@@H]2C=C[C@H]1C21CC1` (racemic) [Example 125, (5R*)—N^5-(Cyclohexyl-methyl)-(6R*)—N^6-(4-pyrrolidin-1-yl-butyl)-(4S*,7R*)-[4,7-ethenylene-spiro[2.4]heptane]-5,6-dicarboxamide], the EC50 came to 268 nM on human FPRL2 and 60 nM at human ALX receptor.

With `CC(C)(C)CCNC(=O)[C@H]1[C@H](C(=O)Nc2ccc(Br)cc2)[C@@H]2C=C[C@H]1C21CC1` (racemic) [Example 85, (5R*)—N^5-(4-Bromophenyl)-(6R*)—N^6-(3,3-dimethyl-butyl)-(4S*,7R*)-[4,7-ethenylene-spiro[2.4]heptane]-5,6-dicarboxamide], the figures for the EC50 at human FPRL2 and at human ALX receptor were 8300 nM and 146 nM, respectively.

For the compound `CC(C)Oc1ccccc1CNC(=O)[C@H]1[C@H](C(=O)NCCCCN2CCCC2)[C@H]2C=C[C@@H]1C21CC1` (racemic) [Example 372, (5R*)—N^5-(2-Isopropoxyphenyl-methyl)-(6R*)—N^6-(4-pyrrolidino-butyl)-(4S*,7R*)-[4,7-ethenylene-spiro[2.4]heptane]-5,6-dicarboxamide], the results for the EC50 at human FPRL2 and at human ALX receptor were 389 nM and over 25000 nM, respectively.

As to `CC(=O)c1csc(CNC(=O)[C@H]2[C@H](C(=O)NCCCN3CCN(C)CC3)[C@H]3C=C[C@@H]2C32CC2)n1` (racemic) [Example 268, (5R*)—N^5-(4-Acetyl-thiazol-2-yl-methyl)-(6R*)—N^6-(3-(4-methylpiperazin-1-yl)-propyl)-(4S*,7R*)-[4,7-ethenylene-spiro[2.4]heptane]-5,6-dicarboxamide], the figures for the half-maximal effective concentration (EC50) on human FPRL2 and at human ALX receptor were 22900 nM and 477 nM, respectively.

Turning to `CCOCCCNC(=O)[C@H]1[C@H](C(=O)Nc2ccc(Br)cc2)[C@@H]2C=C[C@H]1C21CC1` (racemic) [Example 17, (5R*)—N^5-(4-Bromophenyl)-(6R*)—N^6-(3-ethoxy-propyl)-(4S*,7R*)-[4,7-ethenylene-spiro[2.4]heptane]-5,6-dicarboxamide], the results for the concentration for a half-maximal effect (EC50) at human FPRL2 and at human ALX receptor were 2010 nM and 1.8 nM, respectively.

As for `NC(=O)CCNC(=O)[C@H]1[C@H](C(=O)Nc2ccc(Br)cc2)[C@@H]2C=C[C@H]1C21CC1` [Example 13, (5R)—N^5-(4-Bromophenyl)-(6R)—N^6-(2-carbamoyl-ethyl)-(4S,7R)-[4,7-ethenylene-spiro[2.4]heptane]-5,6-dicarboxamide], the EC50 at human FPRL2 came out at 4620 nM; at human ALX receptor, 1.1 nM.

`O=C(NCCCc1nc2ccccc2[nH]1)[C@H]1[C@H](C(=O)NCc2ccc(Br)cc2)[C@@H]2C=C[C@H]1C21CC1` (racemic) [Example 249, (5R*)—N^5-(4-Bromo-phenyl-methyl)-(6R*)—N^6-(3-(1H-benzoimidazol-2-yl)-propyl)-(4S*,7R*)-[4,7-ethenylene-spiro[2.4]heptane]-5,6-dicarboxamide]: the results for the EC50 at human FPRL2 and on human ALX receptor were 47 nM and 216 nM, respectively.

As for `CNCCNC(=O)[C@H]1[C@H](C(=O)Nc2ccc(Br)cc2)[C@@H]2C=C[C@H]1C21CC1` (racemic) [Example 21, (5R*)—N^5-(4-Bromophenyl)-(6R*)—N^6-(2-(N-methyl-amino)-ethyl)-(4S*,7R*)-[4,7-ethenylene-spiro[2.4]heptane]-5,6-dicarboxamide], the concentration giving a half-maximal response (EC50) came out at 1690 nM at human FPRL2 and 2.8 nM at human ALX receptor.

In the case of `NCc1ccc(CNC(=O)[C@H]2[C@H](C(=O)Nc3ncc(Br)s3)[C@@H]3C=C[C@H]2C32CC2)cc1` (racemic) [Example 303, (5R*)—N^5-(5-Bromo-thiazol-2-yl)-(6R*)—N^6-(4-(aminomethyl)phenyl-methyl)-(4S*,7R*)-[4,7-ethenylene-spiro[2.4]heptane]-5,6-dicarboxamide], the half-maximal effective concentration (EC50) on human FPRL2 stood at 1340 nM; at human ALX receptor, 45 nM.

Turning to `NCCNC(=O)[C@H]1[C@H](C(=O)Nc2ccc(Br)cc2)[C@@H]2C=C[C@H]1C21CC1` (racemic) [Example 44, (5R*)—N^5-(4-Bromophenyl)-(6R*)—N^6-(2-amino-ethyl)-(4S*,7R*)-[4,7-ethenylene-spiro[2.4]heptane]-5,6-dicarboxamide], the results for the EC50 at human FPRL2 and on human ALX receptor were 4910 nM and 10 nM, respectively.

As for `O=C(NCCCc1nc2ccccc2[nH]1)[C@H]1[C@H](C(=O)Nc2ncc(Br)s2)[C@@H]2C=C[C@H]1C21CC1` (racemic) [Example 248, (5R*)—N^5-(5-Bromo-thiazol-2-yl)-(6R*)—N^6-(3-(1H-benzoimidazol-2-yl)-propyl)-(4S*,7R*)-[4,7-ethenylene-spiro[2.4]heptane]-5,6-dicarboxamide], the EC50 was 3060 nM at human FPRL2 and 174 nM on human ALX receptor.

Turning to `COc1cc(CNC(=O)[C@H]2[C@H](C(=O)NCCCCN3CCCC3)[C@H]3C=C[C@@H]2C32CC2)ccn1` (racemic) [Example 361, (5R*)—N^5-[(2-Methoxypyridin-4-yl)methyl]-(6R*)—N^6-(4-pyrrolidino-butyl)-(4S*,7R*)-[4,7-ethenylene-spiro[2.4]heptane]-5,6-dicarboxamide], the EC50 at human FPRL2 was 330 nM; on human ALX receptor, 8870 nM.

As to `O=C(NCC1CCNCC1)[C@H]1[C@H](C(=O)Nc2ccc(Br)cc2)[C@@H]2C=C[C@H]1C21CC1` (racemic) [Example 8, (5R*)—N^5-(4-Bromophenyl)-(6R*)—N^6-(4-piperidinyl-methyl)-(4S*,7R*)-[4,7-ethenylene-spiro[2.4]heptane]-5,6-dicarboxamide], the EC50 is 2600 nM at human FPRL2 and 0.82 nM at human ALX receptor.

With `COc1ccc(CNC(=O)[C@H]2[C@H](C(=O)NCCCCN3CCCC3)[C@H]3C=C[C@@H]2C32CC2)c(OC)c1` (racemic) [Example 376, (5R*)—N^5-(2,4-Dimethoxyphenyl-methyl)-(6R*)—N^6-(4-pyrrolidino-butyl)-(4S*,7R*)-[4,7-ethenylene-spiro[2.4]heptane]-5,6-dicarboxamide], the EC50 amounted to 334 nM at human FPRL2 and 10300 nM at human ALX receptor.

One may read the EC50 as the concentration that produces a half-maximal response.
